In paper PMC5509998, “Autotaxin–lysophosphatidic acid–LPA 3 signaling at the embryo‐epithelial boundary controls decidualization pathways” (The EMBO Journal, 2017) one finds IC50 data, which are given here for one molecule.

In the experiment the target is T1, autotaxin (ATX, ENPP2) (Mus musculus, UniProt Q9R1E6).
T1 construct: recombinant ATX; mouse ENPP proteins expressed in HEK293A cells (culture supernatants)
Put plainly: colorimetric phosphodiesterase assay with p-nitrophenyl TMP as substrate. Type of experiment: biochemical.

Usually IC50 stands for the point on the concentration scale where inhibition reaches its midpoint. Higher therefore signals weaker potency. Regarding `CCCCCn1c(-c2ccc(C(=O)NCCN3CCOCC3)cc2)cc(=O)n2cc(-c3ccc(Cl)cc3)nc12` [S15-00826], the 50% inhibitory concentration (IC50) is about 38 nM.
